Measured values: ChEMBL document CHEMBL6153043, “Anthelmintic Potential of Conjugated Long-Chain Fatty Acids Isolated from the Bioluminescent Mushroom Neonothopanus gardneri” (J Nat Prod, 2025)

How the values were obtained:
[1] = Selectivity index, ratio of CC50 for African green monkey Vero cells to EC50 for anti-schistosomal activity against male Schistosoma mansoni; format: toxicity, cell-based; conditions: read-out: Ratio CC50/EC50
[2] = Selectivity index, ratio of CC50 for African green monkey Vero cells to EC50 for anti-schistosomal activity against female Schistosoma mansoni; format: toxicity, cell-based; conditions: read-out: Ratio CC50/EC50
[3] = Toxicity against L4 stage of Caenorhabditis elegans assessed as effect on viability by measuring mobility at 25 to 200 uM incubated for 24 hrs by inverted microscopic analysis; conditions: dose 25-200 µM

With `CCCCCCCC/C=C\[C@@H](O)[C@H](O)CCCCCC(=O)O` the selectivity ratio [1] was over 24.1, the selectivity ratio [2] was over 6.13 and the Activity [3] was “Non-toxic”.
For `O=C(C1CCCCC1)N1CC(=O)N2CCc3ccccc3C2C1` (stereo not given) [PRAZIQUANTEL], the selectivity ratio [1] was over 250 and the selectivity ratio [2] was over 333.
